The values below come from article PMC9889419 (Pharmacological Reports, 2022).

Like-named read-outs stand apart in the source and are kept apart here.

Data set [1] concerns mice. The data set is described as follows: iv pentylenetetrazole (PTZ) seizure threshold test. Particulars: compound ip.
Experimental: They were also evaluated in the iv pentylenetetrazole (PTZ) test.
Data are expressed as the mean PTZ dose ± SEM for n = 10 that induced clonus or twitch in mice exposed to a particular dose of the test compound
Data set [2] has as its system rats. The data set is described as follows: Maximal electroshock seizure (MES) test. It counts as in vivo. For orientation: The maximal electroshock test induces tonic seizures with an electrical stimulus.
In data set [3] the test system is mice. The data set is described as follows: Formalin test (ETSP, area under the curve). As to conditions: 20.0 mg/kg, ip. It counts as in vivo.
For data set [4], the system named is mice. The data set is described as follows: 6 Hz test. It is filed as in vivo. Particulars: 32 mA, mice, ip.
Experimental: The 6 Hz model test was carried out according to the protocol originally described by Brown et al. [54] and more recently by Barton et al. [55] and Kamiński et al. [47] and is a model of pharmacoresistant epilepsy [56].
The test system of data set [5] is organotypic hippocampal slice cultures. The data set is described as follows: Neuroprotection primary screen, excitotoxin kainic acid. It counts as cell-based. Particulars: kainic acid 20 µM; 10 and 100 µM compound. The protocol:
Compound 2 : ADD t{umber, b890s0 Batch: lB- Date Compteted. Ect\,t""201 0 […]
Excilotoxin: llGinic ncia Insult Duration: l+ Hours Solvent: […]
Ai lxn zopr.,r aZ lxa zopr,r Ae lre zoprta
Bz lr<n zopn er ]ra zopr',t l:+aot a r ooprt/|*aa9o8o l oopM lgaeota t oot,tr,t*gB9o8o t oopM […]
The "Primary screen Experiment" is a qualitative assessment of the ability of a compound to prevent excitotoxic cell dearh. organotypic hippocampal slice clltures are treated with N-methyl-D-aipartate lNuoa; o; kainic acid (KA) to induce neuronal cell death. Propidium iodide (Pl), a membrane-impermeant compound, is included in all welts of the culture plate.
Dying cells have compromised cell membranes, thus Pl may diffuse into the cell, intercalate with DNA and ftuoresce. Thus, the intensity of the Pl fluorescence is proportional to the amount of cell death in the individual slices. Hippocampal slice cultures are treated with the excitotoxin alone, or where indicated above, with the excitotoxin and either one eltu/o investigational compounds at the concentrations indicated. lf neuroprotection occurs as a consequence of the added […]
(§1) been treated with the excitotoxin alone.
(§2) (1 picture or pasted object on this page, not shown here)

Data set [6] deals with mice. The data set is described as follows: Rotarod test (neurotoxicity).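 Note: in vivo neurotoxicity screen run within the NIH Epilepsy Therapy Screening Program (ETSP, formerly Anticonvulsant Screening Program).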 It counts as in vivo. As to conditions: mice, ip, […]. In general terms: The rotarod test checks motor coordination on a turning rod.
Experimental: (§3) The assays were carried out within the Epilepsy Therapy Screening Program (ETSP, previously known as the Anticonvulsant Screening Program, ASP), Epilepsy Branch, National Institute of Neurological and Communicative Disorders and Stroke, National Institutes of Health in Rockville, MD, USA [23].
(§4) The obtained compounds were screened for antiseizure activity and neurotoxicity in vivo within the Epilepsy Therapy Screening Program (ETSP, previously known as the Anticonvulsant Screening Program, ASP), Epilepsy Branch, National Institute of Neurological and Communicative Disorders and Stroke, National Institutes of Health in Rockville, MD, USA [23].
In data set [7] the test system is rats. Particulars: ip.
Experimental: as §3
For data set [8], the system named is mice. As to conditions: mice, ip, […].
Experimental: as §3, §4
The test system of data set [9] is rats. It is filed as in vivo. Particulars: ip.
The test system of data set [10] is rats. It counts as in vivo. As to conditions: ip. This is another data set of the same source.
In data set [11] the test system is rats. The data set is described as follows: Rotarod / TOX (neurotoxicity). Particulars: rats, ip.
For data set [12], the system named is mice. The data set is described as follows: Subcutaneous pentylenetetrazole seizure test (ScPTZ, SCMET). It counts as in vivo. As to conditions: mice, ip, […].
Experimental: as §3
Data set [13] relates to organotypic hippocampal slice cultures. The data set is described as follows: Neuroprotection primary screen, excitotoxin NMDA. As to conditions: NMDA 10 µM; 10 and 100 µM compound. It is filed as cell-based.
Source text: Gompound 1 : ADD Number: ItSot+ Batct: lE- Date Started:
Compound 2 : ADD Number: Froso Batct: le Date Completed i l|26-M ar -20 1 O […]
Excitotoxin: lNmoa lnsult Duration: la Uouo Solvent:
Primary Screen Results: ffi […]
Al lruuoa rolrr,| A2lr'rrr,tOa r Olrrr,t * --.- A3 lr'rnroa r oprvr + lsaoot+ t oplrl+aesogo iopM
BZ lr.rrr,ron ropr,t , -_-_-- 83 lluoa topt',r * jffi 1 4 t oopM.€sroso 1 oolrM la+eota tooptu*aasoeo roffi […]
The 'Primary screen Experiment" is a qualitative assessment of the ability of a compound to prevent excrtotoxic cell death. organotypic hippocampal slice cultures are treated *ltn r.i-."iivr-o-"spartate (NMDA) or kainic acad (KA) to induce neuronal cell death' Propidium iodide (Pl), a membrane-imper.eant cornpouna, is included in all wells of the culture plate.
Dying cells have compromised *]lT^"Toj*::, ttr. er rnJy oin "" into the cell, intercatate with DNA and fluoresce. Thus, the intensity of the Pl fluorescence is proportional to the amount of cell death in lhe individual itices. ttippocampat slice cullures are treated with the excitotoxin alone, or *i er. inoi"ui"o above, with the excitotoxin and either one -qf]bar-a Investigalional compounds at the concentrations indicated. lf neuroprotectron occurs as a consequence of the added […]
as §1, §2

For data set [14], the system named is rats. The data set is described as follows: Acute toxicity (ETSP screening). As to conditions: ip, 0.5 h. It counts as in vivo.
The test system of data set [15] is mice. Particulars: ip; cited from earlier work.
The subject of data set [16] is Frings mice. As to conditions: cited from earlier work.
Data set [17] concerns mice. As to conditions: at 40 and 80 mg/kg, ip; cited from earlier work.

Take `CC[C@H](CO)NCCOc1c(C)cccc1Cl` [Compound 5, R-(-)-2-((2-(2-chloro-6-methylphenoxy)ethyl)amino)butan-1-ol]: the “influence on seizure threshold” value in data set [1] is “effect was not shown”. For the same compound, the “MES PI” value in data set [2] (ip) is given as more than 9.12. Besides, the “MES TPE” value in [2] (ip) amounted to 0.25 h; in [2] (po), 0.5 h. Also, the “MES ED50” value in data set [2] (ip, […]) was 4.65 (2.94–6.88) mg/kg; in data set [8] it was 18.20 (16.60–20.00) mg/kg. Further, the “Area under the curve (I phase)” value in data set [3] is 155.1 ± 44.2. In addition, the results for the “Area under the curve (II phase)” value in [3] and in data set [3] (listed as 354009) were 496.7 ± 164.7 and 496.7, respectively. The results for the “Area under the curve, % of control (I phase)” value in [3] and in data set [3] (listed as 354009) were 78.7; t14 = 1.3050% and 78.68%, respectively. In addition, the results for the “Area under the curve, % of control (II phase)” value in [3] and in [3] (listed as 354009) were 105.6; t14 = 0.3579% and 105.6%, respectively. Moreover, the “6 Hz ED50” value in data set [4] ([…]) was 33.1 (29–37.8) mg/kg. The “6 Hz TPE” value in data set [4] amounted to 0.25 h. Besides, the “Test Result (neuroprotection)” value in [5] and in data set [13] was “No Neuroprotection” in each case. The “Rotarod TD50” value was 59.80 (43.80–74.20) mg/kg in data set [6] and more than 30 mg/kg in [11] ([…]). Further, the “LTG-resistant amygdala seizures: rats with toxicity” value was 3/4 in data set [7] (30 mg/kg) and 5/5 in data set [7] (50 mg/kg). For the same compound, the “LTG-resistant amygdala seizures: seizure score by Racine (0–5)” value in [7] (30 mg/kg) was found to be 3.5; in [7] (50 mg/kg), 2.2. Further, the “Pilocarpine-induced status epilepticus prevention: active at” value in data set [9] came to 50 mg/kg. Besides, the Prot./Tested in data set [9] (25 mg/kg, 0 h post first Stage III seizure) is reported as 2/8. The “Pilocarpine test: rats died” value in [9] (at 100 mg/kg, […]) is given as 2/2. Moreover, in data set [10], the “Hippocampal kindling TPE” value was found to be 0.75 h. Also, the “Hippocampal kindling seizure score by Racine (0–5), Rat1” value in data set [10] (at 30 mg/kg) was 4. In addition, in data set [10] (at 30 mg/kg), the “Hippocampal kindling seizure score by Racine (0–5), Rat2” value is 0. Also, the “Rotarod TPE” value in data set [11] is listed as 0.25 h. The “SCMET ED50” value in data set [12] was more than 70 mg/kg. Also, the “Acute toxicity: minimal motor impairment at” value in [14] came to 50 mg/kg.
For `NC(=O)N1c2ccccc2C=Cc2ccccc21` [Carbamazepine], the “MES ED50” value in data set [15] is reported as 7.81 (6.32–8.45) mg/kg. Besides, the “Frings mice sound-induced seizures ED50” value in [16] is 11.2 (7.73–16.2) mg/kg. In addition, the “6 Hz: Max. protection” value in data set [17] is 75%.
